Measurements as given in ChEMBL document CHEMBL3994665, “Pyrano[2,3,4-cd]indole as a Scaffold for Selective Nonbasic 5-HT6R Ligands” (ACS Med Chem Lett, 2017).

Assays:
[1] = target: 5-hydroxytryptamine receptor 7 (Homo sapiens, UniProt P34969); assay: Displacement of [3H]-5-CT from 5-HT7b receptor (unknown origin)
[2] = target: T1, 5-hydroxytryptamine receptor 6 (Homo sapiens, UniProt P50406); assay: Displacement of [3H]-LSD from 5-HT6 receptor (unknown origin)
[3] = target: 5-hydroxytryptamine receptor 2A (Homo sapiens, UniProt P28223); assay: Binding affinity to 5HT2A receptor (unknown origin)
Sequence of 5-hydroxytryptamine receptor 2A (P28223 whole entry): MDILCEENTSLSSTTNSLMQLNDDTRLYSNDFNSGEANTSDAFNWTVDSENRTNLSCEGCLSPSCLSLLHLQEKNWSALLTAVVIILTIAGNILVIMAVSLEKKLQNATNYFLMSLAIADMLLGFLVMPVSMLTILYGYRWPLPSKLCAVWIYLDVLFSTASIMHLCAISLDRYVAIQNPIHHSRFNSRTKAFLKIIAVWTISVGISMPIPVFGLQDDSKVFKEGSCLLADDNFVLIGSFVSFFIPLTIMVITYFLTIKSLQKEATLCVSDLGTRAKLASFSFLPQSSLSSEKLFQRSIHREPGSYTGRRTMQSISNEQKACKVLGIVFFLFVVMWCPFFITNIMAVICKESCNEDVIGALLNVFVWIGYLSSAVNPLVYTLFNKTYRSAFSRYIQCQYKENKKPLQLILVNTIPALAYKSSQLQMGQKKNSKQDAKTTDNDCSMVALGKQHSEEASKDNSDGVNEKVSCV

D(2) dopamine receptor = D(2) dopamine receptor (Homo sapiens, UniProt P14416); assay: Displacement of [3H]-Raclopride from D2L receptor (unknown origin)
Sequence of D(2) dopamine receptor (P14416 whole entry): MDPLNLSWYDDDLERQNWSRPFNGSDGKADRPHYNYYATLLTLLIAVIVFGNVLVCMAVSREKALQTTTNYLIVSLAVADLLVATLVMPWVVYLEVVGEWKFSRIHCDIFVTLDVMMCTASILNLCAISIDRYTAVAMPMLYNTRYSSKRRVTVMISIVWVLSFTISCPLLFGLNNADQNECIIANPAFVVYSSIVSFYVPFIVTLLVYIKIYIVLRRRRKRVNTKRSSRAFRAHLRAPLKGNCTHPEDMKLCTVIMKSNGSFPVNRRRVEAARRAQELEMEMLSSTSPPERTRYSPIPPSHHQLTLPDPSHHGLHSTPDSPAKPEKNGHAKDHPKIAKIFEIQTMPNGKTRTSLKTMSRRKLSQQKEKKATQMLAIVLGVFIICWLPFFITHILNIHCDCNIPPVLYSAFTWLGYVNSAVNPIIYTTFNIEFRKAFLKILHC

[4] = target: T2, 5-hydroxytryptamine receptor 1A (Homo sapiens, UniProt P08908); assay: Displacement of [3H]-8-OH-DPAT from 5HT1A receptor (unknown origin)
T2 sequence (P08908 whole entry): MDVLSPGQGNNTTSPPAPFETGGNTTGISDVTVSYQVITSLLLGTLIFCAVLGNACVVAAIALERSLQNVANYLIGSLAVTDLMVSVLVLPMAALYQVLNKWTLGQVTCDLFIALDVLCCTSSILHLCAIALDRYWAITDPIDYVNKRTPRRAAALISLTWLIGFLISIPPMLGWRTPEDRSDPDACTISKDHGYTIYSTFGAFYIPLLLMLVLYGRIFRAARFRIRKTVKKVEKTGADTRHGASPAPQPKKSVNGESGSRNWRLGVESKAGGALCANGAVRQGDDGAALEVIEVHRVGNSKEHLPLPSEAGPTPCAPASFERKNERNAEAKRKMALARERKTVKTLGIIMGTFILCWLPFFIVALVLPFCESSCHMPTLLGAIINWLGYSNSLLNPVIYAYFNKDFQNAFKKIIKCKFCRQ

[5] = target: T1, 5-hydroxytryptamine receptor 6; assay: Antagonist activity at 5-HT6 receptor (unknown origin) expressed in HEK293 cells assessed as inhibition of 5-CT induced cAMP production after 30 mins by TR-FRET assay; assay type: functional, cell-based

Sequence of 5-hydroxytryptamine receptor 7 (P34969 whole entry): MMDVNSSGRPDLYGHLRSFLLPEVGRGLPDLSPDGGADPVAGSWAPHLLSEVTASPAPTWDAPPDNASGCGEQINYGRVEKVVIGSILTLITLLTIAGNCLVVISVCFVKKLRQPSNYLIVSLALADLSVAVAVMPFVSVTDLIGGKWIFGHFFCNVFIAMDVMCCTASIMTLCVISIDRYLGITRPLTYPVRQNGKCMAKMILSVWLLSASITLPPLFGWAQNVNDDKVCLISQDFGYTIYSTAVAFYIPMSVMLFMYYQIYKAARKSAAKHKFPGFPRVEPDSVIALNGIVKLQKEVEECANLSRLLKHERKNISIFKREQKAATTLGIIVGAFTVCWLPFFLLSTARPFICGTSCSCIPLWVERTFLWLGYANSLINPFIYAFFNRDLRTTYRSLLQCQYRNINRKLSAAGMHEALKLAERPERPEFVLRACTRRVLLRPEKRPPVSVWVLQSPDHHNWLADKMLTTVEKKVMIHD
T1 sequence (P50406 whole entry): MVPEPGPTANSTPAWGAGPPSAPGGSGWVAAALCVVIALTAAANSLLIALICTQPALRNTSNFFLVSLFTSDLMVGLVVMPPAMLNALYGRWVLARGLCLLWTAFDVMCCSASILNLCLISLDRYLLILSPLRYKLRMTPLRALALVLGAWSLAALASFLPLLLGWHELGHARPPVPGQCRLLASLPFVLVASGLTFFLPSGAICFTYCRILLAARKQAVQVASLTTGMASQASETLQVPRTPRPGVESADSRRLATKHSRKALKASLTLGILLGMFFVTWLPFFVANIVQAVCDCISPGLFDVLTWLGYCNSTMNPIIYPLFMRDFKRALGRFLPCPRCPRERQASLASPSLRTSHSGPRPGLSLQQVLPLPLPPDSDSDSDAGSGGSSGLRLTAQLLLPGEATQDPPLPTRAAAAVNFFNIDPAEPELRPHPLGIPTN

Structure (SMILES)	Ki [1] [µM]	Ki [2] [µM]	Ki [3] [µM]	Ki (D(2) dopamine receptor) [µM]	Ki [4] [µM]	Kb [5] [µM]
CC1=C(CO)Oc2cccc3c2c1cn3S(=O)(=O)c1ccccc1	> 10	0.052	> 10	> 10	> 10	–
CN(C)CC1=Cc2cn(S(=O)(=O)c3ccccc3)c3cccc(c23)O1	3.69	0.005	0.065	6.7	> 10	–
O=S(=O)(c1ccccc1)n1cc2c3c(cccc31)OC(CO)=C2	> 10	0.036	> 10	> 10	> 10	0.016
CN(C)CC1=Cc2cn(S(=O)(=O)c3cccc4ccccc34)c3cccc(c23)O1	0.438	0.001	0.489	1.49	5.97	–
CC1=C(CO)Oc2cccc3c2c1cn3S(=O)(=O)c1cccc2ccccc12	> 10	0.02	> 10	> 10	> 10	–
O=S(=O)(c1cccc2ccccc12)n1cc2c3c(cccc31)OC(CO)=C2	> 10	0.004	> 10	4.29	–	–
O=CC1=Cc2cn(S(=O)(=O)c3cccc4ccccc34)c3cccc(c23)O1	> 10	0.266	–	5.16	> 10	–
CCN(CC)CC1=Cc2cn(S(=O)(=O)c3ccccc3)c3cccc(c23)O1	> 10	0.028	1.7	4.35	> 10	–
N#CC1=Cc2cn(S(=O)(=O)c3cccc4ccccc34)c3cccc(c23)O1	> 10	0.755	–	> 10	> 10	–
